One series deals with Torpedo maramorta AchR (Torpedo marmorata, UniProt P02711). Details: Relative Affinity: reference not given here. The note with it: cited from earlier work.
Series [1] relates to mice. The note with it: mouse, in vivo, sc.
Series [2] concerns cell lines in tissue culture.
The test system of series [3] is mice. The note with it: mouse, in vivo.

Read-outs that look alike come from different tables or passages of the source.

Consider `CN1CCCC1c1cccnc1` (stereo not drawn) [Nicotine], for which, at Torpedo maramorta AchR, the IC50 is 1400 µM and the “Relative Affinity” value is given as 0.19.
`C[N+](C)(C)CCOC(N)=O.[Cl-]` [Carbamylcholinechloride]: on Torpedo maramorta AchR, the IC50 is 2800 µM and the “Relative Affinity” value is 0.09.
With `C[N+](C)(C)CCOC(=O)CCCCCCC(=O)OCC[N+](C)(C)C.[I-].[I-]` [Suderyldicholine], the “Relative Affinity” value on Torpedo maramorta AchR is 104.0. The IC50 at Torpedo maramorta AchR (read-out: IC50) is 2.5 µM.
As for alpha Bungarotoxin, on Torpedo maramorta AchR, the “Relative Affinity” value is listed as 30,952.0. Moreover, the IC50 on Torpedo maramorta AchR (read-out: IC50) was 0.0084 µM.
Consider `COc1cc2c3cc1Oc1cc(ccc1O)C[C@@H]1c4c(cc(OC)c(O)c4Oc4ccc(cc4)C[C@@H]3N(C)CC2)CC[N+]1(C)C` [d-Tubocurarine], for which the “Relative Affinity” value at Torpedo maramorta AchR is reported as 76.5. The IC50 on Torpedo maramorta AchR (read-out: IC50) was 3.4 µM.
alpha cobratoxin: the “Time to death (average)” value in the series on mice [1] is 20.5 min. In addition, the “Toxicity to cell lines” value in series [2] is reported as “not toxic”. Further, in the series with Torpedo maramorta AchR, the “Relative Affinity” value is 1,529.0. Further, the concentration for half-maximal inhibition (IC50) with Torpedo maramorta AchR (read-out: IC50) was 0.17 µM. The “Paralysis in mice injected with the toxin” value with mice [3] was “very little or no paralysis”.

One may read the IC50 as the point on the concentration scale where inhibition reaches its midpoint.

The values above are taken from patent US20040192594A1 (priority 2002, published 2004).
